Tests used:
Test in all cases: SelectScreen Z′-LYTE kinase assay
Assay type in all cases: biochemical
SRC = SRC (Homo sapiens, UniProt P12931)
Protocol: (§1) The kinase selectivity profile of BST-4 was performed by the SelectScreen kinase profiling service (Thermo Fisher Scientific). Kinase selectivity assay was performed using Z′-LYTE ™ screening protocol kit. Briefly, the test compounds were screened in 1% DMSO (final). For 10-point titrations, perform a 3-fold dilution starting at a starting concentration of 50 µM. Then 2.5 µL 4× test compound, 2.4 µL kinase buffer, 5 µL 2× kinase mixture and 2.5 µL 4× ATP solution was added in black 384-well plate. After shaking for 30 s, the plates were incubated for 60 min at room temperature. Add developing reagent solution and shake the plate for 30 s, then incubate for 1 h at room temperature. The Fluorescence intensity per well was read using a fluorescence plate reader. SelectScreen® Kinase Profiling Service used XLfit from IDBS. The dose response curve was curve fit to model number 205 (sigmoidal dose-response model) and inhibition rates were calculated. 50% inhibition was used as a activity threshold. IC50 values were calculated based on curve fitting.

TEC = TEC (Homo sapiens, UniProt P42680)
Protocol: as §1

FLT3 = FLT3 (Homo sapiens, UniProt P36888)
Protocol: as §1

RET = RET (Homo sapiens, UniProt P07949)
Protocol: as §1

CSF1R = CSF1R (Homo sapiens, UniProt P07333)
Protocol: as §1

BMX = BMX (Homo sapiens, UniProt P51813)
Protocol: as §1

JAK2 = JAK2 (Homo sapiens, UniProt O60674)
Protocol: as §1

BLK = BLK (Homo sapiens, UniProt P51451)
Protocol: as §1

FER = FER (Homo sapiens, UniProt P16591)
Protocol: as §1

FGFR3 = FGFR3 (Homo sapiens, UniProt P22607)
Protocol: as §1

FYN = FYN (Homo sapiens, UniProt P06241)
Protocol: as §1

EPHA7 = EPHA7 (Homo sapiens, UniProt Q15375)
Protocol: as §1

LTK = LTK (Homo sapiens, UniProt P29376)
Protocol: as §1

JAK1 = JAK1 (Homo sapiens, UniProt P23458)
Protocol: as §1

TYRO3 = TYRO3 (Homo sapiens, UniProt Q06418)
Protocol: as §1

EPHA4 = EPHA4 (Homo sapiens, UniProt P54764)
Protocol: as §1

EPHA8 = EPHA8 (Homo sapiens, UniProt P29322)
Protocol: as §1

EPHB3 = EPHB3 (Homo sapiens, UniProt P54753)
Protocol: as §1

ABL1 = ABL1 (Homo sapiens, UniProt P00519)
Protocol: as §1

ZAP70 = ZAP70 (Homo sapiens, UniProt P43403)
Protocol: as §1

MERTK = MERTK (Homo sapiens, UniProt Q12866)
Protocol: as §1

HCK = HCK (Homo sapiens, UniProt P08631)
Protocol: as §1

EGFR = EGFR (Homo sapiens, UniProt P00533)
Protocol: as §1

NTRK2 = NTRK2 (Homo sapiens, UniProt Q16620)
Protocol: as §1

YES1 = YES1 (Homo sapiens, UniProt P07947)
Protocol: as §1

ERBB4 = ERBB4 (Homo sapiens, UniProt Q15303)
Protocol: as §1

PDGFRB = PDGFRB (Homo sapiens, UniProt P09619)
Protocol: as §1

SRMS = SRMS (Homo sapiens, UniProt Q9H3Y6)
Protocol: as §1

EPHB4 = EPHB4 (Homo sapiens, UniProt P54760)
Protocol: as §1

INSRR = INSRR (Homo sapiens, UniProt P14616)
Protocol: as §1

KIT = KIT (Homo sapiens, UniProt P10721)
Protocol: as §1

TXK = TXK (Homo sapiens, UniProt P42681)
Protocol: as §1

Chain of EPHB3 (P54753 34-998): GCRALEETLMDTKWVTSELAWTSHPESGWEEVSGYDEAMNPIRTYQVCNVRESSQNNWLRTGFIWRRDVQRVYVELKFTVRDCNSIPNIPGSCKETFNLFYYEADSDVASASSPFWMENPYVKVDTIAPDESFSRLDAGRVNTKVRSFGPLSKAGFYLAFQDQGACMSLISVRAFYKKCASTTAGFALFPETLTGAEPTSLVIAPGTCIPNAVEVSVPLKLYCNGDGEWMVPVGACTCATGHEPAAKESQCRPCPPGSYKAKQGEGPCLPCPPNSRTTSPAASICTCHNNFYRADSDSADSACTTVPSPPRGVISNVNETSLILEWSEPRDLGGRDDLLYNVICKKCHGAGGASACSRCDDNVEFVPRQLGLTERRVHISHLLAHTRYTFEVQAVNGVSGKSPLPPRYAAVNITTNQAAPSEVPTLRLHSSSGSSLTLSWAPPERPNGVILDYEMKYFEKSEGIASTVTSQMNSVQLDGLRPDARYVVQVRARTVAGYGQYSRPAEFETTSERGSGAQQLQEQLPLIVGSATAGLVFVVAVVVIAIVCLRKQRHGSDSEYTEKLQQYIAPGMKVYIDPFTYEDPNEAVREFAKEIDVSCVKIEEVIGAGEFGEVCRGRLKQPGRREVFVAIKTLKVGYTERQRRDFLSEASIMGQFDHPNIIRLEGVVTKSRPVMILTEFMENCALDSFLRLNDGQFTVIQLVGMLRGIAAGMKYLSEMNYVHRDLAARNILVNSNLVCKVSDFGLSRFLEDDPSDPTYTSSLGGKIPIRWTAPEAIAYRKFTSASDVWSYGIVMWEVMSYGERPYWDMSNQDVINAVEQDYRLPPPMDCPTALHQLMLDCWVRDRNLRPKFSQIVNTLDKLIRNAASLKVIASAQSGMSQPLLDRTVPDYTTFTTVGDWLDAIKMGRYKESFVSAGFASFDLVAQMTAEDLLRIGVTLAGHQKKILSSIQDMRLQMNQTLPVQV
Chain of FYN (P06241 whole entry): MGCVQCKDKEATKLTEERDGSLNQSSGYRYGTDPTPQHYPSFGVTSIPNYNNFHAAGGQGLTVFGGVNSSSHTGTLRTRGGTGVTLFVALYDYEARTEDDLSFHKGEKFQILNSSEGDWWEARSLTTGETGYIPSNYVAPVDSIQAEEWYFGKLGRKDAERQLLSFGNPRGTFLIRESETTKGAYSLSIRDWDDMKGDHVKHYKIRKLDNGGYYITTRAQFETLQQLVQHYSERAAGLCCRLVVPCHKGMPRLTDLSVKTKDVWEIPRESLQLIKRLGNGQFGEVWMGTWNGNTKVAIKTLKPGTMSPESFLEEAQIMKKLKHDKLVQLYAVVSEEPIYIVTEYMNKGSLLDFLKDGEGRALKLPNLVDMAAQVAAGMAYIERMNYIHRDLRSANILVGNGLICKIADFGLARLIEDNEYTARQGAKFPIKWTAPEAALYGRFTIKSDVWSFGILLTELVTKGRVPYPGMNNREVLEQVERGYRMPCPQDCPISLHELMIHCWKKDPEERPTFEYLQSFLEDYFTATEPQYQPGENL
Chain of LTK (P29376 17-864): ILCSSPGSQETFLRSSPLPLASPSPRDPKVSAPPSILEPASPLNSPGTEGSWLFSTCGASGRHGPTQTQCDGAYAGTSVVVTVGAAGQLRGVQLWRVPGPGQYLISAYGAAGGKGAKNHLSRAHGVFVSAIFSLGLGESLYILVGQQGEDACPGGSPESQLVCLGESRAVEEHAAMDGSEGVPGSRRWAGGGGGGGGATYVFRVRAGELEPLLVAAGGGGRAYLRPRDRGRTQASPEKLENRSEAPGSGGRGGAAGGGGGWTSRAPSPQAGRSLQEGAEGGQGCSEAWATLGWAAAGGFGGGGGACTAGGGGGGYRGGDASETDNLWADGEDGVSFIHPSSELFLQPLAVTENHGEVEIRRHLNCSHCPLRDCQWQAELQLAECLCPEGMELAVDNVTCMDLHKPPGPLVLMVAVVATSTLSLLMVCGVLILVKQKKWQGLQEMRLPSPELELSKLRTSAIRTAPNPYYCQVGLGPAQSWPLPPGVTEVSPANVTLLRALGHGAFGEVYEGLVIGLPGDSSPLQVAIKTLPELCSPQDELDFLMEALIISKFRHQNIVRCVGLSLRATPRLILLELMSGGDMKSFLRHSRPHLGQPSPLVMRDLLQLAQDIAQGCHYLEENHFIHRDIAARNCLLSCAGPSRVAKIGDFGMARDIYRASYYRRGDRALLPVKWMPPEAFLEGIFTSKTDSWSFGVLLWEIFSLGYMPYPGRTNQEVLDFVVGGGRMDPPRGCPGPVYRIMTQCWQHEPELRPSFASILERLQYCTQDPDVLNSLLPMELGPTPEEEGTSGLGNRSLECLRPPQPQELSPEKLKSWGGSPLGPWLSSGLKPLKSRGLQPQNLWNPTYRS
Chain of NTRK2 (Q16620 32-822): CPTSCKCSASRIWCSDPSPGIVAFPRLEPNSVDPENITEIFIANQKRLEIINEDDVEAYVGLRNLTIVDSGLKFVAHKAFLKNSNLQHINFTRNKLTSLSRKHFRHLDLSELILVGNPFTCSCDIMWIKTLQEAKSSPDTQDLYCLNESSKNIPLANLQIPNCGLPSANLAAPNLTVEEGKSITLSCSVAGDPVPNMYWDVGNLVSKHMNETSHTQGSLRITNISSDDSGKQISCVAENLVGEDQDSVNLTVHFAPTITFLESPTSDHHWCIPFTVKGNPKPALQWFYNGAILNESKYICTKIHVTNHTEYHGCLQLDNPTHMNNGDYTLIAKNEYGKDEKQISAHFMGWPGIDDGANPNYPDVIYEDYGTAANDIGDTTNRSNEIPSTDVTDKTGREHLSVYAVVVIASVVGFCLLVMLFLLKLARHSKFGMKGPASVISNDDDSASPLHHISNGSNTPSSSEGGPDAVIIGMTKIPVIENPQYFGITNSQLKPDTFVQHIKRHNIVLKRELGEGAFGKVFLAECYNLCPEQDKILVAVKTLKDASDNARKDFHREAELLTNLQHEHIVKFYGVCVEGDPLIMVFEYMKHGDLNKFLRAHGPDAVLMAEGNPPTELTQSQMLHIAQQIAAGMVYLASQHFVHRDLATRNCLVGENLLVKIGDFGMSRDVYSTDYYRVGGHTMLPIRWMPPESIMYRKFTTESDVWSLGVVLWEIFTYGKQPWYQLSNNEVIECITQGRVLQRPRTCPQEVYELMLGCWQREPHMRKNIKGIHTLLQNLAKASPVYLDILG
Chain of KIT (P10721 26-976): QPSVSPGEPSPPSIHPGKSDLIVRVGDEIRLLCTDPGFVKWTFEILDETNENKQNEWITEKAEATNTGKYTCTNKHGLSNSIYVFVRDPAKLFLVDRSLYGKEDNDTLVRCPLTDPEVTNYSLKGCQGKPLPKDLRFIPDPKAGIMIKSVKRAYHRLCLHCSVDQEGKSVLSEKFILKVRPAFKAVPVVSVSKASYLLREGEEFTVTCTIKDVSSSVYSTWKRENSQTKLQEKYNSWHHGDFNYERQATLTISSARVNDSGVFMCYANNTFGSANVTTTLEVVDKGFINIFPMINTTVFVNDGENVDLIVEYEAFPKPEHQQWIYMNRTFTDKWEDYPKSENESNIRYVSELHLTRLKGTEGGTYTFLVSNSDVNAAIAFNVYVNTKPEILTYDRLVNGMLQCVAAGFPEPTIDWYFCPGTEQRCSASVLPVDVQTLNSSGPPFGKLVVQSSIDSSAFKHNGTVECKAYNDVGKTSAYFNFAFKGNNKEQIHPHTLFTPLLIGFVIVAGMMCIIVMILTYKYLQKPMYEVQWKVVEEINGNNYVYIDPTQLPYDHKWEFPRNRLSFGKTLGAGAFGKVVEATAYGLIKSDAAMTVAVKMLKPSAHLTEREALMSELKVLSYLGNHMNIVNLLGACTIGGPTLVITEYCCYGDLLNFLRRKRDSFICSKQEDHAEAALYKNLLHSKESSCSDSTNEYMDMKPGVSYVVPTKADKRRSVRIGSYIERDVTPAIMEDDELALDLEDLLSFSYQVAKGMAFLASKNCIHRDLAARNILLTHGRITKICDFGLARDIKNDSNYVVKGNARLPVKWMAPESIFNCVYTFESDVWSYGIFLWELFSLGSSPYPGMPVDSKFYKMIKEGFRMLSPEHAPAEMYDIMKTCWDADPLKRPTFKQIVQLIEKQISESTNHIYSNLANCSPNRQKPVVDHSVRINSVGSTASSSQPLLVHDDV
Chain of EPHA7 (Q15375 28-998): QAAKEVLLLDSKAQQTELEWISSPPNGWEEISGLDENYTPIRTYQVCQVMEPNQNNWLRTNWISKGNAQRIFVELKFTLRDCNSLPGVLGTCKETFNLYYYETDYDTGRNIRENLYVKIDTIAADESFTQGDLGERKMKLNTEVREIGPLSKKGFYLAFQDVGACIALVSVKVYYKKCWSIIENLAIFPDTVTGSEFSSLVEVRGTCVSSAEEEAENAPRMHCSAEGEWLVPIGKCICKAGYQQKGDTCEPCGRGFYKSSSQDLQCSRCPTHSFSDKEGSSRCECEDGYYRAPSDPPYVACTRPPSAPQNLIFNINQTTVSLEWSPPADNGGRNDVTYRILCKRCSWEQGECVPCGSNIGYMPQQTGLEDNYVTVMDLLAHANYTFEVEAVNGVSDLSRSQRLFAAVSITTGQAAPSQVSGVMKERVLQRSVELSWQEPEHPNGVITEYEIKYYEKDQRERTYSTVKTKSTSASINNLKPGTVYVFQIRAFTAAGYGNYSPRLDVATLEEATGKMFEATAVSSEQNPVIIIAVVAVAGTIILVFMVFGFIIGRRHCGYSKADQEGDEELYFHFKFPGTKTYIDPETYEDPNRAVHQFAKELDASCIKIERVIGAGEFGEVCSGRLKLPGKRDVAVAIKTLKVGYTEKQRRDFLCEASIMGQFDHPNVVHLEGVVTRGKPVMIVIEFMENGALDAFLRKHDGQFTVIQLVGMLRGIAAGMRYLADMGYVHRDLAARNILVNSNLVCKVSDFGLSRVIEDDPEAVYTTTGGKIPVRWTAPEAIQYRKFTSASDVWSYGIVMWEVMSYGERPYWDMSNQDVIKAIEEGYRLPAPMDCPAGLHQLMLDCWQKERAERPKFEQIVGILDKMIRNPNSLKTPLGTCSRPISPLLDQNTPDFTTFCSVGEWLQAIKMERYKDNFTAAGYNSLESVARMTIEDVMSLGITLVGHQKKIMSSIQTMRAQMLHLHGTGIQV

In the case of CCS(=O)(=O)Cc1cnc(Oc2c(F)cc(F)cc2OCCCCOc2ccc(/C=C/c3cc(OC)cc(OC)c3)cc2)c(-c2cc(C)c3c(=O)[nH]ccn23)c1 [BST-4], the IC50 (SRC) is reported as > 10 µM, the inhibition at 1 µM (SRC) is reported as 3.24% and the IC50 (TEC) is reported as > 10 µM. The inhibition at 1 µM (TEC) was 0.67%, the IC50 (FLT3) was > 10 µM and the inhibition at 1 µM (FLT3) was 0.52%. For the same compound, the IC50 (RET) was > 10 µM, the inhibition at 1 µM (RET) was 0.41% and the IC50 (CSF1R) was > 10 µM. The inhibition at 1 µM (CSF1R) was 2.02%, the IC50 (BMX) was > 10 µM and the inhibition at 1 µM (BMX) was 3.05%. The IC50 (JAK2) was > 10 µM, the inhibition at 1 µM (JAK2) was 0.18% and the IC50 (BLK) was > 10 µM. For the same compound, the inhibition at 1 µM (BLK) was 0.54%, the IC50 (FER) was > 10 µM and the inhibition at 1 µM (FER) was 0.03%. For the same compound, the IC50 (FGFR3) was > 10 µM, the inhibition at 1 µM (FGFR3) was 2.84% and the IC50 (FYN) was > 10 µM. The inhibition at 1 µM (FYN) was 2.03%, the IC50 (EPHA7) was > 10 µM and the inhibition at 1 µM (EPHA7) was 0.91%. For the same compound, the IC50 (LTK) was > 10 µM, the inhibition at 1 µM (LTK) was 0.21% and the IC50 (JAK1) was > 10 µM. The inhibition at 1 µM (JAK1) was 1.21%, the IC50 (TYRO3) was > 10 µM and the inhibition at 1 µM (TYRO3) was 0.04%. The IC50 (EPHA4) was > 10 µM, the inhibition at 1 µM (EPHA4) was 0.58% and the IC50 (EPHA8) was > 10 µM. The inhibition at 1 µM (EPHA8) was 0.72%, the IC50 (EPHB3) was > 10 µM and the inhibition at 1 µM (EPHB3) was 0.98%. The IC50 (ABL1) was > 10 µM, the inhibition at 1 µM (ABL1) was 0.31% and the IC50 (ZAP70) was > 10 µM. For the same compound, the inhibition at 1 µM (ZAP70) was 0.68%, the IC50 (MERTK) was > 10 µM and the inhibition at 1 µM (MERTK) was 0.07%. The IC50 (HCK) was > 10 µM, the inhibition at 1 µM (HCK) was 0.86% and the IC50 (EGFR) was > 10 µM. For the same compound, the inhibition at 1 µM (EGFR) was 0.37%, the IC50 (NTRK2) was > 10 µM and the inhibition at 1 µM (NTRK2) was 1.22%. The IC50 (YES1) was > 10 µM, the inhibition at 1 µM (YES1) was 1.22% and the IC50 (ERBB4) was > 10 µM. The inhibition at 1 µM (ERBB4) was 0.78%, the IC50 (PDGFRB) was > 10 µM and the inhibition at 1 µM (PDGFRB) was 0.1%. For the same compound, the IC50 (SRMS) was > 10 µM, the inhibition at 1 µM (SRMS) was 0.53% and the IC50 (EPHB4) was > 10 µM. For the same compound, the inhibition at 1 µM (EPHB4) was 0.97%, the IC50 (INSRR) was > 10 µM and the inhibition at 1 µM (INSRR) was 0.62%. For the same compound, the IC50 (KIT) was > 10 µM, the inhibition at 1 µM (KIT) was 0.25% and the IC50 (TXK) was > 10 µM. It also gave an inhibition at 1 µM (TXK) of 0.09%.

— article PMC11897524 (Frontiers in Pharmacology, 2025)
